Test results as given in publication PMC6197257 (Scientific Reports, 2018).

Columns and labels:
CYP3A4 = tested on: CYP3A4; design: method as in PMID 26712778, PMID 22943175; conditions: competitive inhibitor; cited from earlier work
[1] = pharmacokinetics in EHBRs orally treated with GA (200 mg/kg), LC-MS/MS; type: in vivo, Eisai Hyperbilirubinemia rats (EHBRs); conditions: Eisai Hyperbilirubinemia rats (EHBR), rat, plasma; female EHBRs, GA 200 mg/kg oral, 12 h; read-out: plasma concentration 12 h after GA treatment
Description: Female SD rats or EHBRs (9-week-old) were anesthetized by an intraperitoneal (i.p.) injection of urethane (1 g/kg) and their jugular veins were exposed. […] Aliquots (10 µl) of plasma or urine were mixed with 20 µl of subtilisin (0.91 U/ml), incubated at 37 °C for 30 min, followed by the addition of 70 µl of astragalloside IV solution (1 µg/ml in ethanol containing 0.5% formic acid), and kept at −20 °C for 30 min.

CYP2C9 = tested on: CYP2C9; design: method as in PMID 26712778, PMID 22943175; conditions: competitive inhibitor; cited from earlier work
rat kidney slices = experiment: uptake by rat kidney slices; type: in vitro ADME; conditions: pooled plasma of female EHBRs, pH 5.5, 2 h
Description: Female SD rats (9-week-old) were treated with urethane (1 g/kg, i.p.), and their kidneys were collected. After removal of the capsule, the kidneys were sliced at approximately 0.5-mm thickness in the frontal section of the organ, using a tissue slicer (Natsume Seisakusyo, Tokyo, Japan) and then cut at the renal hilus into two halves. The slices were pre-incubated at either 4 or 37 °C for 15 min in 24-well plates with 0.3 ml of the incubation medium (137 mM NaCl, 5.4 mM KCl, 0.95 mM CaCl2, 0.81 mM MgSO4, 0.44 mM KH2PO4, 0.25 mM Na2HPO4, 5.5 mM glucose, 10 mM MES, adjusted to pH 5.5). Five ml of pooled female EHBR plasma samples was lyophilized, and dissolved in 5 ml of the incubation medium. […] After washing with PBS three times, the kidney slices were homogenated in PBS using sonication, and the concentrations of protein were measured as mentioned above. […]
LC-ESI(+)MS/MS analysis was conducted at the following conditions: column, Scherzo SM-C18 (3 μm, 3 mm i.d. ×100 mm, Imtakt, Kyoto, Japan); mobile phase, (A) 5 mM AcNH4, (B) 125 mM AcNH4/acetonitrole 1:4, at a flow rate of 0.3 ml/min, with the following gradient profile: A:B = 50:50–0:100 (0–3 min) and 0:100 (3–10 min); compound 1 (5.8 min), astragaloside IV (3.0 min), GA (8.7 min); the transitions monitored were the same as described in the previous section. […]

anti-3MGA MAb = experiment: competitive ELISA cross-reactivity of anti-3MGA MAb; type: binding, mouse; conditions: CR = IC50 for 3MGA / IC50 for compound x 100, 3MGA calibrated as 100%
Description: To activate the hapten 3MGA for the preparation of anti-3MGA MAb, the 3MGA-KLH conjugate was synthesized by using a model based on the carbodiimide method with both EDC and NHS reagents. 3MGA-HSA was also prepared using the same method, and was used for ELISA. We also evaluated the hapten number of the 3MGA-HSA conjugate by MALDI-TOF MS analysis. […] The MAb was developed by using the same methods described in our previous study. Hybridomas secreting antibodies recognizing 3MGA were selected by ELISA and then subcloned 4 times by the limited dilution method. […] The heavy chain of the obtained MAb was classified using a Calbiochem mouse hybridoma subisotyping kit (EMD Biosciences, Darmstadt, Germany), whereas the light chain was estimated using an IsoQuick^TM mouse monoclonal isotyping strip (Sigma) according to the manufacturer’s instructions.
3MGA-HSA (1 µg/ml in 50 mM carbonate buffer, pH 9.6) was added into a 96-well plate (Nagel Nunc, Penfield, NY, USA) (100 µl/well), and incubated at 37 °C for 1 h. After the removal of 3MGA-HSA, the wells were washed with 200 µl/well PBS containing 0.05% Tween 20 (T-PBS) for 3 times. The wells were incubated with 300 µl/well of 5% skim milk (Morinaga-milk, Tokyo, Japan) at 4 °C overnight. […] After the wells were washed with T-PBS 3 times, HRP-labeled goat anti-mouse IgG (Fc specific) antibody (1:1,000 dilution with T-PBS) was added into the wells (100 µl/well), and the plate was incubated at 37 °C for 1 h. Next, the wells were washed with T-PBS 3 times, the substrate solution (0.006% H2O2 in 200 mM citrate buffer, pH 4.0/H2O/0.6 mg/ml ABTS 10:9:1) was added into the wells (100 µl/well), and incubated at room temperature for 15 min.

[2] = concentrations in pooled plasma of EHBRs 12 h after oral GA (200 mg/kg); type: in vivo; conditions: Eisai Hyperbilirubinemia rats (EHBR), rat
Description: Three female and three male EHBRs (9-week-old, respectively) were injected with urethane (1 g/kg, i.p.), and orally treated with an aqueous GA aqueous suspension (200 mg/kg in 1% CMC). Twelve h after the treatment, blood was collected from the abdominal vena cava, and the plasma samples of each sex rat were pooled.
LC-ESI(+)MS/MS analysis was conducted at the following conditions: column, Scherzo SM-C18 (3 μm, 3 mm i.d. ×100 mm, Imtakt, Kyoto, Japan); mobile phase, (A) 5 mM AcNH4, (B) 125 mM AcNH4/acetonitrole 1:4, at a flow rate of 0.3 ml/min, with the following gradient profile: A:B = 50:50–0:100 (0–3 min) and 0:100 (3–10 min); compound 1 (5.8 min), astragaloside IV (3.0 min), GA (8.7 min); the transitions monitored were the same as described in the previous section. Linear regressions over the concentration range 0.08–2 µM for compound 1 and 3.2 nM–2 µM for GA were examined using the peak-area ratio of the compounds to their internal standards and the least-squares method (r^2 > 0.98).

CYP2C19 = tested on: CYP2C19; design: method as in PMID 26712778, PMID 22943175; conditions: competitive inhibitor; cited from earlier work

SMILES: CC1(C)[C@@H](O)CC[C@]2(C)[C@H]3C(=O)C=C4[C@@H]5C[C@@](C)(C(=O)O)CC[C@]5(C)CC[C@@]4(C)[C@]3(C)CC[C@@H]12 [GA, 18β-glycyrrhetinic acid]
- IC50 (CYP3A4): 8.2 to 14 µM
- concentration at 12 h [1]: 5.9 µM
- IC50 (CYP2C9): 33 to 43 µM
- uptake by kidney slices at 37 °C compared with 4 °C (rat kidney slices): similar
- cross-reactivity of anti-3MGA MAb (anti-3MGA MAb): 1.04%
- concentration at 12 h ([2]; female, read-out: concentration in pooled plasma, female EHBRs): 7 µM
- concentration at 12 h ([2]; male, read-out: concentration in pooled plasma, male EHBRs): 3.2 µM
- IC50 (CYP2C19): 41 to 74 µM

SMILES: CC1(C)[C@@H](O[C@H]2O[C@H](C(=O)O)[C@@H](O)[C@H](O)[C@H]2O[C@@H]2O[C@H](C(=O)O)[C@@H](O)[C@H](O)[C@H]2O)CC[C@]2(C)[C@H]3C(=O)C=C4[C@@H]5C[C@@](C)(C(=O)O)CC[C@]5(C)CC[C@@]4(C)[C@]3(C)CC[C@@H]12 [GL, glycyrrhizin]
- cross-reactivity of anti-3MGA MAb (anti-3MGA MAb): 0.22%

SMILES: CC(C)=CCC[C@](C)(O[C@@H]1O[C@H](CO[C@@H]2O[C@H](CO)[C@@H](O)[C@H](O)[C@H]2O)[C@@H](O)[C@H](O)[C@H]1O)[C@H]1CC[C@]2(C)[C@@H]1[C@H](O)C[C@@H]1[C@@]3(C)CC[C@H](O[C@@H]4O[C@H](CO)[C@@H](O)[C@H](O)[C@H]4O[C@@H]4O[C@H](CO)[C@@H](O)[C@H](O)[C@H]4O)C(C)(C)[C@@H]3CC[C@]12C [ginsenoside Rb1]
- cross-reactivity of anti-3MGA MAb (anti-3MGA MAb): less than 0.02%

SMILES: C[C@]1(C(=O)O)CC[C@]2(C)CC[C@]3(C)C(=CC(=O)[C@@H]4[C@@]5(C)CC[C@H](O[C@@H]6O[C@H](C(=O)O)[C@@H](O)[C@H](O)[C@H]6O[C@@H]6O[C@H](C(=O)O)[C@@H](O)[C@H](O)[C@H]6O)[C@](C)(CO)[C@@H]5CC[C@]43C)[C@@H]2C1 [licorice saponin G2]
- cross-reactivity of anti-3MGA MAb (anti-3MGA MAb): less than 0.02%

SMILES: O=C1C[C@@H](c2ccc(O[C@@H]3O[C@H](CO)[C@@H](O)[C@H](O)[C@H]3O)cc2)Oc2cc(O)ccc21 [liquiritin]
- cross-reactivity of anti-3MGA MAb (anti-3MGA MAb): less than 0.02%

SMILES: C[C@@]12C[C@@]3(O)O[C@@H](O1)[C@]1(COC(=O)c4ccccc4)[C@H]3C[C@@]12O[C@@H]1O[C@H](CO)[C@@H](O)[C@H](O)[C@H]1O [paeoniflorin]
- cross-reactivity of anti-3MGA MAb (anti-3MGA MAb): less than 0.02%

SMILES: C[C@H]1O[C@@H](O[C@H]2CC[C@@]3(C)[C@@H](CC[C@]4(C)[C@@H]3C=C[C@]35OC[C@@]6(CCC(C)(C)C[C@H]63)[C@@H](O)C[C@]54C)[C@]2(C)CO)[C@H](O)[C@@H](O[C@@H]2O[C@H](CO)[C@@H](O)[C@H](O)[C@H]2O)[C@H]1O [saikosaponin a]
- cross-reactivity of anti-3MGA MAb (anti-3MGA MAb): less than 0.02%
